Laboratory results taken from PubChem BioAssay AID1918934 (Molecular Pharmacology Branch, DTP, NCI, 2023).

Tested on: 292921-168-R-J2-PDC complex spheroid viability
Test: Anticancer human tumor 292921-168-R-J2-PDC patient-derived pancreatic carcinoma cell line growth inhibition
Settings: for IC50: curve of first compound; for viability, T/C: stronger effect = lower value
Procedure, shortened: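 Multicellular complex spheroids of tumor cells with human endothelial cells (HUVEC) and mesenchymal stem cells; the LSD1 inhibitor iadademstat was combined with standard-of-care or investigational agents. Top concentration at or near clinical Cmax, half-log dilutions; final DMSO ≤0.25%.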

[1] = second compound 0.1 µM, first compound 0.00316 µM
[2] = second compound 0.1 µM, first compound 0.01 µM
[3] = second compound 0.1 µM, first compound 0.0316 µM
[4] = second compound 0.1 µM, first compound 0.1 µM
[5] = second compound 0.316 µM, first compound 0.00316 µM
[6] = second compound 0.316 µM, first compound 0.01 µM
[7] = second compound 0.316 µM, first compound 0.0316 µM
[8] = second compound 0.316 µM, first compound 0.1 µM
[9] = second compound 1 µM, first compound 0.00316 µM
[10] = second compound 1 µM, first compound 0.01 µM
[11] = second compound 1 µM, first compound 0.0316 µM
[12] = second compound 1 µM, first compound 0.1 µM
[13] = second compound 3.16 µM, first compound 0.00316 µM
[14] = second compound 3.16 µM, first compound 0.01 µM
[15] = second compound 3.16 µM, first compound 0.0316 µM
[16] = second compound 3.16 µM, first compound 0.1 µM
[17] = second compound 10 µM, first compound 0.00316 µM
[18] = second compound 10 µM, first compound 0.01 µM
[19] = second compound 10 µM, first compound 0.0316 µM
[20] = second compound 10 µM, first compound 0.1 µM
[21] = second compound 0.1 µM, first compound 0.00949 µM
[22] = second compound 0.1 µM, first compound 0.03 µM
[23] = second compound 0.1 µM, first compound 0.0949 µM
[24] = second compound 0.1 µM, first compound 0.3 µM
[25] = second compound 0.1 µM, first compound 0.949 µM
[26] = second compound 0.1 µM, first compound 3 µM
[27] = second compound 0.316 µM, first compound 0.00949 µM
[28] = second compound 0.316 µM, first compound 0.03 µM
[29] = second compound 0.316 µM, first compound 0.0949 µM
[30] = second compound 0.316 µM, first compound 0.3 µM
[31] = second compound 0.316 µM, first compound 0.949 µM
[32] = second compound 0.316 µM, first compound 3 µM
[33] = second compound 1 µM, first compound 0.00949 µM
[34] = second compound 1 µM, first compound 0.03 µM
[35] = second compound 1 µM, first compound 0.0949 µM
[36] = second compound 1 µM, first compound 0.3 µM
[37] = second compound 1 µM, first compound 0.949 µM
[38] = second compound 1 µM, first compound 3 µM
[39] = second compound 3.16 µM, first compound 0.00949 µM
[40] = second compound 3.16 µM, first compound 0.03 µM
[41] = second compound 3.16 µM, first compound 0.0949 µM
[42] = second compound 3.16 µM, first compound 0.3 µM
[43] = second compound 3.16 µM, first compound 0.949 µM
[44] = second compound 3.16 µM, first compound 3 µM
[45] = second compound 10 µM, first compound 0.00949 µM
[46] = second compound 10 µM, first compound 0.03 µM
[47] = second compound 10 µM, first compound 0.0949 µM
[48] = second compound 10 µM, first compound 0.3 µM
[49] = second compound 10 µM, first compound 0.949 µM
[50] = second compound 10 µM, first compound 3 µM
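Note: seven day compound exposure before luminescent viability read.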
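Throughout, for viability, T/C: 100% = DMSO vehicle control wells.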

COc1cc(Nc2ncc3c(n2)-c2ccc(Cl)cc2C(c2c(F)cccc2OC)=NC3)ccc1C(=O)O + NC1CCC(NC2CC2c2ccccc2)CC1
IC50 (second compound 0.1 µM): < 3.16 nM | IC50 (second compound 0.316 µM): < 3.16 nM | IC50 (second compound 1 µM): < 3.16 nM | IC50 (second compound 3.16 µM): < 3.16 nM | IC50 (second compound 10 µM): < 3.16 nM | viability, T/C [1]: 32.5% | viability, T/C [2]: 37.7% | viability, T/C [3]: 33.5% | viability, T/C [4]: 28.6% | viability, T/C (second compound 0.1 µM, first compound 0.316 µM): 22.4% | viability, T/C (second compound 0.1 µM, first compound 1 µM): 16.5% | viability, T/C [5]: 31.7% | viability, T/C [6]: 39.2% | viability, T/C [7]: 32.5% | viability, T/C [8]: 24.6% | viability, T/C (second compound 0.316 µM, first compound 0.316 µM): 22.5% | viability, T/C (second compound 0.316 µM, first compound 1 µM): 14.3% | viability, T/C [9]: 35.6% | viability, T/C [10]: 34.7% | viability, T/C [11]: 34.8% | viability, T/C [12]: 29.3% | viability, T/C (second compound 1 µM, first compound 0.316 µM): 18.3% | viability, T/C (second compound 1 µM, first compound 1 µM): 14.3% | viability, T/C [13]: 30.2% | viability, T/C [14]: 32.6% | viability, T/C [15]: 29.4% | viability, T/C [16]: 25.9% | viability, T/C (second compound 3.16 µM, first compound 0.316 µM): 21.5% | viability, T/C (second compound 3.16 µM, first compound 1 µM): 14.9% | viability, T/C [17]: 28.3% | viability, T/C [18]: 36.8% | viability, T/C [19]: 30.9% | viability, T/C [20]: 25.2% | viability, T/C (second compound 10 µM, first compound 0.316 µM): 19.9% | viability, T/C (second compound 10 µM, first compound 1 µM): 15.3%

Cn1ncnc1C1c2n[nH]c(=O)c3cc(F)cc(c23)NC1c1ccc(F)cc1 (stereo not given) + NC1CCC(NC2CC2c2ccccc2)CC1
IC50 (second compound 0.1 µM): > 100 nM | IC50 (second compound 0.316 µM): 81.4 nM | IC50 (second compound 1 µM): > 100 nM | IC50 (second compound 3.16 µM): 28.4 nM | IC50 (second compound 10 µM): > 100 nM | viability, T/C (second compound 0.1 µM, first compound 0.000316 µM): 68.7% | viability, T/C (second compound 0.1 µM, first compound 0.001 µM): 69% | viability, T/C [1]: 64.6% | viability, T/C [2]: 66.7% | viability, T/C [3]: 66.6% | viability, T/C [4]: 53.4% | viability, T/C (second compound 0.316 µM, first compound 0.000316 µM): 66.6% | viability, T/C (second compound 0.316 µM, first compound 0.001 µM): 60.4% | viability, T/C [5]: 62.1% | viability, T/C [6]: 52.8% | viability, T/C [7]: 54.2% | viability, T/C [8]: 49.1% | viability, T/C (second compound 1 µM, first compound 0.000316 µM): 67.6% | viability, T/C (second compound 1 µM, first compound 0.001 µM): 60.3% | viability, T/C [9]: 54.9% | viability, T/C [10]: 52.9% | viability, T/C [11]: 47.1% | viability, T/C [12]: 55.7% | viability, T/C (second compound 3.16 µM, first compound 0.000316 µM): 57.7% | viability, T/C (second compound 3.16 µM, first compound 0.001 µM): 57.1% | viability, T/C [13]: 58.6% | viability, T/C [14]: 53% | viability, T/C [15]: 46.8% | viability, T/C [16]: 46.6% | viability, T/C (second compound 10 µM, first compound 0.000316 µM): 59% | viability, T/C (second compound 10 µM, first compound 0.001 µM): 60.4% | viability, T/C [17]: 60.8% | viability, T/C [18]: 57% | viability, T/C [19]: 50.4% | viability, T/C [20]: 54.3%

NS(=O)(=O)OCC1CC(n2ccc3c(NC4CCc5ccccc54)ncnc32)CC1O (stereo not given) + NC1CCC(NC2CC2c2ccccc2)CC1
IC50 (second compound 0.1 µM): 16.8 nM | IC50 (second compound 0.316 µM): 16.7 nM | IC50 (second compound 1 µM): 16.1 nM | IC50 (second compound 3.16 µM): 15.3 nM | IC50 (second compound 10 µM): 12.8 nM | viability, T/C [21]: 83.8% | viability, T/C [22]: 15.6% | viability, T/C [23]: 3.97% | viability, T/C [24]: 1.88% | viability, T/C [25]: 1.9% | viability, T/C [26]: 2.04% | viability, T/C [27]: 83.4% | viability, T/C [28]: 15.3% | viability, T/C [29]: 4.75% | viability, T/C [30]: 3.14% | viability, T/C [31]: 2.25% | viability, T/C [32]: 1.88% | viability, T/C [33]: 77.6% | viability, T/C [34]: 17.4% | viability, T/C [35]: 4.76% | viability, T/C [36]: 2.36% | viability, T/C [37]: 2.12% | viability, T/C [38]: 1.71% | viability, T/C [39]: 72.7% | viability, T/C [40]: 18.4% | viability, T/C [41]: 4.6% | viability, T/C [42]: 2.14% | viability, T/C [43]: 1.54% | viability, T/C [44]: 1.63% | viability, T/C [45]: 62.3% | viability, T/C [46]: 15.6% | viability, T/C [47]: 4.83% | viability, T/C [48]: 2.29% | viability, T/C [49]: 1.42% | viability, T/C [50]: 0.82%

O=C(C=Cc1cccc(S(=O)(=O)Nc2ccccc2)c1)NO + NC1CCC(NC2CC2c2ccccc2)CC1
IC50 (second compound 0.1 µM): < 9.49 nM | IC50 (second compound 0.316 µM): < 9.49 nM | IC50 (second compound 1 µM): < 9.49 nM | IC50 (second compound 3.16 µM): < 9.49 nM | IC50 (second compound 10 µM): < 9.49 nM | viability, T/C [21]: 44% | viability, T/C [22]: 36.2% | viability, T/C [23]: 28.6% | viability, T/C [24]: 17.3% | viability, T/C [25]: 0.45% | viability, T/C [26]: 0.08% | viability, T/C [27]: 48.7% | viability, T/C [28]: 34.8% | viability, T/C [29]: 31.6% | viability, T/C [30]: 19.1% | viability, T/C [31]: 0.37% | viability, T/C [32]: 0.38% | viability, T/C [33]: 43.8% | viability, T/C [34]: 35.6% | viability, T/C [35]: 30.9% | viability, T/C [36]: 15.2% | viability, T/C [37]: 0.34% | viability, T/C [38]: 0.09% | viability, T/C [39]: 40% | viability, T/C [40]: 33.4% | viability, T/C [41]: 24.4% | viability, T/C [42]: 12.4% | viability, T/C [43]: 0.19% | viability, T/C [44]: 0.08% | viability, T/C [45]: 42.2% | viability, T/C [46]: 32.4% | viability, T/C [47]: 22.9% | viability, T/C [48]: 7.61% | viability, T/C [49]: 0.12% | viability, T/C [50]: 0.13%
